Test results reported in patent US20250049806A1, “PHARMACEUTICAL COMPOSITION FOR PROVIDING TREATMENT FOR OR PREVENTING ALPORT SYNDROME” (UBE Corporation, priority 2021, published 2025).

Experiment: Transcellular transport test using Caco2 cell
Format: in vitro ADME
Conditions: human, Caco-2, apical-to-basolateral (A-to-B), pH=7.4, 10 µM compound
Experimental: Caco2 cells (purchased from ATCC) were cultured in DMEM medium (Thermo Fisher Scientific, Inc., 11965) containing 10% FBS (Thermo Fisher Scientific, Inc., 10082) and 1% penicillin/streptomycin/amphotericin B (Thermo Fisher Scientific, Inc., 15240). A transcellular transport test was carried out in accordance with MultiScreen Caco2 Drug Transport Assembly in a 96-well system (Application Note AN1727EN, MultiScreen Caco-2 Assay System, Merck) by partially modifying it. The Caco2 cells were inoculated at a cell density of 4×10^4 cells/well onto a micropore polycarbonate insert of a 96-well plate (Merck, Millcell-96 culture insert plate 0.4 μm pore size, well membrane area=0.11 cm^2, PSHT004S5) and cultured for 20 to 22 days, and the resulting monolayer was used in the transcellular transport test. The medium of the inoculated cells was replaced with a fresh one every 3 to 4 days.
Apical-to-basolateral (A-to-B) transport in the Caco2 cell monolayer membrane was performed by using HBSS (Thermo Fisher Scientific, Inc., 14025) medium (pH=7.4) containing 20 mM HEPES (Thermo Fisher Scientific, Inc., 15630), and adding HEPES-containing HBSS medium containing 10 µM compound (a 10 mM solution of the compound in DMSO was added at a 1000-fold dilution; final DMSO concentration: 0.1%) at 75 μL/well to the apical side and HEPES-containing HBSS medium supplemented with no compound at 250 μL/well to the basolateral side, followed by culture at 37° C. for 90 minutes. After culture, a 100 μL aliquot was collected from the basolateral side, and the concentration of a permeated compound was measured by LC-MS/MS under measurement conditions mentioned later. Papp (apparent permeability; cm/sec) was calculated from the determined concentration. Papp was determined according to the expression given below by calculating the slope (dA/dt; nmol/sec) of a straight line drawn between two points 0 minutes and zero amount of the compound in a graph plotted with an assay time (90 min) on the abscissa against the amount of the compound in the solution on the permeated side on the ordinate. As for an assay concentration, the concentration in the compound in the HEPES-containing HBSS medium containing the added compound was measured by UV-HPLC under measurement conditions mentioned later.
C0: assay concentration, S: plate membrane area=0.11 cm^2
• LC: LC20 or LC30 HPLC system manufactured by Shimadzu Corp. • Column: Phenomenex Kinetex C18 (50 mm×2.1 mm, 2.6 μm) • Column temperature: 40° C. • Flow rate: 0.3 mL/min • Mobile phase A: 0.1% aqueous formic acid solution • Mobile phase B: 0.1% formic acid, 50% acetonitrile/methanol mixed solution • Gradient: 0-2 min; A/B=90/10 to 10/90, 2-3 min; A/B=10/90, 3-3.01 min; A/B=10/90 to 90/10 • MS: Q-Trap3200 manufactured by AB Sciex Pte. Ltd. • Ionization: ESI • Mode: Positive
• LC: LC20 or LC30 HPLC system manufactured by Shimadzu Corp. • Column: Phenomenex Kinetex C18 (100 mm×2.1 mm, 2.6 μm) • Column temperature: 40° C. • Flow rate: 0.25 mL/min • Mobile phase A: 0.1% aqueous formic acid solution • Mobile phase B: 0.1% formic acid, 50% acetonitrile/methanol mixed solution • Gradient: 0-3 min; A/B=90/10, 3-11 min; A/B=90/10 to 5/95, 11-15 min; A/B=5/95, 15-15.1 min; A/B=5/95 to 90/10 • UV detector: photodiode array detector
A: Papp>1×10^−6 (cm/sec), B: 1×10^−6 (cm/sec)≥Papp>5×10^−7 (cm/sec), C: 5×10^−7 (cm/sec)≥Papp>1×10^−7 (cm/sec), or D: Papp≤1×10^−7 (cm/sec).

Papp A→B at 90 min, 10 µM [×10⁻⁶ cm/s] | Structure (SMILES)
> 1 | O=C(O)C[C@H](NC(=O)CNC(=O)c1cc(NC2=NCC(F)CN2)c2cn[nH]c2c1)c1ccc(F)c(OC(F)F)c1 (stereo partly drawn) [27-(b), (3S)-3-(3-(difluoromethoxy)-4-fluorophenyl)-3-(2-(4-((5-fluoro-1,4,5,6-tetrahydropyrimidin-2-yl)amino)-1H-indazole-6-carboxamido)acetamido)propanoic acid]
> 1 | O=C(O)C[C@H](NC(=O)CNC(=O)c1cc(NC2=NCC(F)CN2)c2cn[nH]c2c1)c1cccc(C(F)(F)F)c1F (stereo partly drawn) [9-(b), (3S)-3-(2-(4-((5-fluoro-1,4,5,6-tetrahydropyrimidin-2-yl)amino)-1H-indazole-6-carboxamido)acetamido)-3-(2-fluoro-3-(trifluoromethyl)phenyl)propanoic acid]
> 1 | O=C(O)C[C@H](NC(=O)CNC(=O)c1cc(NC2=NCC(F)CN2)c2cn[nH]c2c1)c1cc(Cl)ccc1F (stereo partly drawn) [22-(b), (3S)-3-(5-chloro-2-fluorophenyl)-3-(2-(4-((5-fluoro-1,4,5,6-tetrahydropyrimidin-2-yl)amino)-1H-indazole-6-carboxamido)acetamido)propanoic acid]
> 1 | O=C(O)C[C@H](NC(=O)CNC(=O)c1cc(NC2=NCC(F)CN2)c2cn[nH]c2c1)c1cccc(OC(F)F)c1 (stereo partly drawn) [37-(b), (3S)-3-(3-(difluoromethoxy)phenyl)-3-(2-(4-((5-fluoro-1,4,5,6-tetrahydropyrimidin-2-yl)amino)-1H-indazole-6-carboxamido)acetamido)propanoic acid]
0.5 to 1 | O=C(O)C[C@H](NC(=O)CNC(=O)c1cc(NC2=NCC(F)CN2)c2c(Cl)n[nH]c2c1)c1cc(Cl)cc(C(F)(F)F)c1 (stereo partly drawn) [49-(b), (3S)-3-(2-(3-chloro-4-((5-fluoro-1,4,5,6-tetrahydropyrimidin-2-yl)amino)-1H-indazole-6-carboxamido)acetamido)-3-(3-chloro-5-(trifluoromethyl)phenyl)propanoic acid]
> 1 | O=C(O)C[C@H](NC(=O)CNC(=O)c1cc(NC2=NCC(F)CN2)c2cn[nH]c2c1)c1cc(OC(F)F)ccc1F (stereo partly drawn) [28-(b), (3S)-3-(5-(difluoromethoxy)-2-fluorophenyl)-3-(2-(4-((5-fluoro-1,4,5,6-tetrahydropyrimidin-2-yl)amino)-1H-indazole-6-carboxamido)acetamido)propanoic acid]
> 1 | O=C(O)C[C@H](NC(=O)CNC(=O)c1cc(NC2=NCC(F)CN2)c2cn[nH]c2c1)c1cc(Cl)cc(OC(F)F)c1 (stereo partly drawn) [25-(b), (3S)-3-(3-chloro-5-(difluoromethoxy)phenyl)-3-(2-(4-((5-fluoro-1,4,5,6-tetrahydropyrimidin-2-yl)amino)-1H-indazole-6-carboxamido)acetamido)propanoic acid]
> 1 | O=C(O)C[C@H](NC(=O)CNC(=O)c1cc(NC2=NCC(F)CN2)c2cn[nH]c2c1)c1cccc(C2CC2)c1 (stereo partly drawn) [39-(b), (3S)-3-(3-cyclopropylphenyl)-3-(2-(4-((5-fluoro-1,4,5,6-tetrahydropyrimidin-2-yl)amino)-1H-indazole-6-carboxamido)acetamido)propanoic acid]
> 1 | O=C(O)C[C@H](NC(=O)CNC(=O)c1cc(NC2=NCC(F)CN2)c2cn[nH]c2c1)c1cccc(C(F)(F)F)c1 (stereo partly drawn) [35-(b), (3S)-3-(2-(4-((5-fluoro-1,4,5,6-tetrahydropyrimidin-2-yl)amino)-1H-indazole-6-carboxamido)acetamido)-3-(3-(trifluoromethyl)phenyl)propanoic acid]
> 1 | O=C(O)C[C@H](NC(=O)CNC(=O)c1cc(NC2=NCC(F)CN2)c2cn[nH]c2c1)c1cc(Br)cc(OC(F)F)c1 (stereo partly drawn) [26-(b), (3S)-3-(3-bromo-5-(difluoromethoxy)phenyl)-3-(2-(4-((5-fluoro-1,4,5,6-tetrahydropyrimidin-2-yl)amino)-1H-indazole-6-carboxamido)acetamido)propanoic acid]
> 1 | O=C(O)C[C@H](NC(=O)CNC(=O)c1cc(NC2=NCC(F)CN2)c2c(F)n[nH]c2c1)c1cc(Cl)cc(C(F)(F)F)c1 (stereo partly drawn) [48-(b), (3S)-3-(3-chloro-5-(trifluoromethyl)phenyl)-3-(2-(3-fluoro-4-((5-fluoro-1,4,5,6-tetrahydropyrimidin-2-yl)amino)-1H-indazole-6-carboxamido)acetamido)propanoic acid]
> 1 | O=C(O)C[C@H](NC(=O)CNC(=O)c1cc(NC2=NCC(F)CN2)c2cn[nH]c2c1)c1cc(Cl)cc(Br)c1 (stereo partly drawn) [18-(b), (3S)-3-(3-bromo-5-chlorophenyl)-3-(2-(4-((5-fluoro-1,4,5,6-tetrahydropyrimidin-2-yl)amino)-1H-indazole-6-carboxamido)acetamido)propanoic acid]
> 1 | O=C(O)C[C@H](NC(=O)CNC(=O)c1cc(NC2=NCC(F)CN2)c2cn[nH]c2c1)c1cc(F)cc(C(F)(F)F)c1 (stereo partly drawn) [6-(b), (3S)-3-(2-(4-((5-fluoro-1,4,5,6-tetrahydropyrimidin-2-yl)amino)-1H-indazole-6-carboxamido)acetamido)-3-(3-fluoro-5-(trifluoromethyl)phenyl)propanoic acid]
0.5 to 1 | Cc1cc(C)n(-c2cccc([C@H](CC(=O)O)NC(=O)CNC(=O)c3cc(NC4=NCC(F)CN4)c4cn[nH]c4c3)c2)n1 (stereo partly drawn) [44-(b), (3S)-3-(3-(3,5-dimethyl-1H-pyrazol-1-yl)phenyl)-3-(2-(4-((5-fluoro-1,4,5,6-tetrahydropyrimidin-2-yl)amino)-1H-indazole-6-carboxamido)acetamido)propanoic acid]
0.1 to 0.5 | O=C(O)C[C@H](NC(=O)CNC(=O)c1cc(NC2=NCC(F)CN2)c2cn[nH]c2c1)c1cc(OC(F)F)cc(-n2cccn2)c1 (stereo partly drawn) [29-(b), (3S)-3-(3-(difluoromethoxy)-5-(1H-pyrazol-1-yl)phenyl)-3-(2-(4-((5-fluoro-1,4,5,6-tetrahydropyrimidin-2-yl)amino)-1H-indazole-6-carboxamido)acetamido)propanoic acid]
> 1 | O=C(O)C[C@H](NC(=O)CNC(=O)c1cc(NC2=NCC(F)CN2)c2cn[nH]c2c1)c1ccc(F)c(OC(F)(F)F)c1 (stereo partly drawn) [34-(b), (3S)-3-(2-(4-((5-fluoro-1,4,5,6-tetrahydropyrimidin-2-yl)amino)-1H-indazole-6-carboxamido)acetamido)-3-(4-fluoro-3-(trifluoromethoxy)phenyl)propanoic acid]
> 1 | O=C(O)C[C@H](NC(=O)CNC(=O)c1cc(NC2=NCC(F)CN2)c2cn[nH]c2c1)c1ccc(F)c(C(F)(F)F)c1 (stereo partly drawn) [13-(b), (3S)-3-(2-(4-((5-fluoro-1,4,5,6-tetrahydropyrimidin-2-yl)amino)-1H-indazole-6-carboxamido)acetamido)-3-(4-fluoro-3-(trifluoromethyl)phenyl)propanoic acid]
> 1 | O=C(O)C[C@H](NC(=O)CNC(=O)c1cc(NC2=NCC(F)CN2)c2cn[nH]c2c1)c1cc(I)cc(C(F)(F)F)c1 (stereo partly drawn) [3-(b), (3S)-3-(2-(4-((5-fluoro-1,4,5,6-tetrahydropyrimidin-2-yl)amino)-1H-indazole-6-carboxamido)acetamido)-3-(3-iodo-5-(trifluoromethyl)phenyl)propanoic acid]
> 1 | O=C(O)C[C@H](NC(=O)CNC(=O)c1cc(NC2=NCC(F)CN2)c2cn[nH]c2c1)c1cccc(C(F)F)c1 (stereo partly drawn) [38-(b), (3S)-3-(3-(difluoromethyl)phenyl)-3-(2-(4-((5-fluoro-1,4,5,6-tetrahydropyrimidin-2-yl)amino)-1H-indazole-6-carboxamido)acetamido)propanoic acid]
